According to patent US20200339953A1, “HEMATOPOIETIC STEM AND PROGENITOR CELL THERAPY” (priority 2010, published 2020):

Key:
human CD34^+ cells = test: Microfluidic qPCR using the Fluidigm platform (signature genes of Table 3); format: cell-based; settings: 37° C.
Description: Real-time PCR transcript quantitation from 16,16-dimethyl PGE2 ex vivo treated CD34+ cell samples was performed using the BioMark Dynamic Array microfluidics system (Fluidigm Corporation, South San Francisco, Calif., USA). Total RNA was isolated from treated cells using Pico Pure RNA Isolation Kit (Molecular Devices, Sunnyvale, Calif., USA). Complimentary DNA (cDNA) was reverse transcribed from 50 ng of isolated total RNA using the High-Capacity cDNA Reverse Transcription Kit (Life Technologies Corporation, Carlsbad, Calif., USA).
cDNA was pre-amplified for specific target genes (96) using a 200 nM mixture of 96 gene specific primer pairs (see Table 1), including 6 reference control genes using the TaqMan PreAmp Master Mix Kit (Life Technologies) protocol. Specific target amplification (STA) from cDNA was performed using 14 cycles of amplification with the standard cycling conditions using the manufacturer's protocol. EvaGreen dye (Biotium, Inc. Hayward, Calif., USA) was added according to Fluidigm's EvaGreen protocol to detect amplified products. For samples, the reaction mix contained 3.0 μL Gene Expression Master Mix (Life Tech.), 0.3 μL Sample Loading Buffer (Fluidigm), 0.3 μL 20× EvaGreen dye (Biotium, Inc.), 1.5 μL diluted (1:5 sterile nH2O) STA cDNA, and 0.9 μL sterile diH2O for loading into the sample inlets of the 96.96 Dynamic Array (Fluidigm).
Samples were run in replicates, from 5 to 9 wells. For primer pairs, the reaction mix contained 2.5 μL Gene Specific Primer pairs (20 μM) and 2.5 μL Assay Loading Buffer (Fluidigm) for loading into the assay inlets on the 96.96 Dynamic Array (Fluidigm). 96.96 Dynamic arrays were loaded using a NanoFlex IFC Controller HX (Fluidigm) and real-time reactions were performed using a BioMark Real-Time PCR System (Fluidigm).
Results were analyzed using BioMark Real-Time PCR Analysis software. Average Cts were calculated from the sample replicates and delta-delta Cts (ΔΔCt) were calculated using the mean of 6 reference genes (ACTB, GAPDH, HPRT1, QARS, ARPC2 and LRIG2) against a vehicle only sample. Cts above 28 or amplified products with inappropriate melting curve properties were excluded from the calculations.
A microfluidic qPCR platform was also used to measure expression changes of a 16,16-dimethyl PGE2 gene expression signature of the genes listed in Table 3 in human CD34^+ cells at different incubation times.
Further, gene expression signatures were measured on cells that received short pulse treatments with 16,16-dimethyl PGE2 followed by a recovery period in the absence of the drug. Human CD34^+ cells were incubated for different times in the presence of 16,16-dimethyl PGE2 followed by a wash and recovery period in media designed to reflect the in vivo setting. The experimental design matched the ex vivo treatment paradigm where cells are treated, washed to remove the drug and then administered to the patient. CD34^+ cells were incubated with 16,16-dimethyl PGE2 at 37° C. for 5, 15, 30, 60, or 120 minutes and the gene expression signatures were analyzed. For incubation periods less than 120 minutes, the cells were washed in media to remove the 16,16-dimethyl PGE2 and then the cells were incubated for the remaining period in media to allow time for gene expression to take place.

[1] = test system: Whole cord blood cells or CD34^+ cells; test: Cell viability assay (7-AAD staining); format: cell-based, human
Description: Whole cord blood cells or CD34^+ cells obtained from Stem Cell Technologies (Vancouver, Canada) were aliquoted equally in Eppendorf tubes and treated ex vivo at a range of 16,16-dimethyl PGE2 concentrations (10 μM to 100 μM) or DMSO control; temperatures (4° C., 22° C., or 37° C.) for 60 or 120 minutes in LMD/5% HSA media. After treatment, an aliquot of the incubated cells were assayed using 7-Amino-Actinomycin D (7-AAD) staining as an indicator of cell death. One million whole cord blood were stained with 5 μL of 7AAD staining solution (BD Bioscience, San Jose, Calif.), or 200,000 CD34^+ cord blood cells were stained with 1 μL 7-AAD solution. Cells were analyzed on a Guava EasyCyte 8HT System (Millipore) and with the FlowJo software package (Tree Star Inc., Ashland, Oreg.). A separate aliquot of the same cells were also taken for assessment of proliferation potential using CFU-C assays (discussed below in Example 4).

SMILES: CCCCC(C)(C)[C@H](O)/C=C/[C@H]1[C@H](O)CC(=O)[C@@H]1C/C=C\CCCC(=O)O [16,16-dimethyl PGE2]
- pulse incubation giving maximal gene expression changes (human CD34^+ cells; 10 μM): about 2 hours
- constant exposure after which suitable gene expression signatures were detectable (human CD34^+ cells; 10 μM, FIG. 14A): at least 60 minutes
- constant exposure giving maximal gene expression response (human CD34^+ cells; 10 μM, FIG. 14A-B): after at least about two hours
- pulse incubation after which recognizable gene expression signatures were observed (human CD34^+ cells; 10 μM, recovery to 120 minutes total): about 30 minutes
- gene expression response to short pulse treatments (5-15 minutes) (human CD34^+ cells; 10 μM, recovery to 120 minutes total, FIGS. 15A-15B): not sufficient
- concentration at which the gene expression signature was maximal (human CD34^+ cells; 2 hours, FIGS. 16A-16B): 10 µM
- cell viability (FIG. 10) ([1]; CD34+ cells, 10 μM, 120 minutes, 37° C. vs vehicle or 4° C.): does not decrease cell viability
- cell viability (7-AAD) ([1]; whole cord blood cells or CD34+ cells, high temperatures, relatively long incubation periods vs other conditions): did not decrease cell viability
